Reference: ChEMBL document CHEMBL5608184, “Discovery and mechanistic insights into thieno[3,2-d]pyrimidine and heterocyclic fused pyrimidines inhibitors targeting tubulin for cancer therapy” (Eur J Med Chem, 2024)

Experiments:
SK-OV-3 [1] = experiment: Induction of apoptosis in human SK-OV-3 cells assessed as viable cells at 1.25 nM incubated for 48 hrs by Annexin V-APC-A/7-AAD-A staining based flow cytometry (reference value: 97.50 %); format: functional; settings: read-out: Activity
SK-OV-3 [2] = experiment: Induction of apoptosis in human SK-OV-3 cells assessed as viable cells at 0.625 nM incubated for 48 hrs by Annexin V-APC-A/7-AAD-A staining based flow cytometry (reference value: 97.17 %); format: functional; settings: read-out: Activity

| SMILES | viability at 0.00125 µM (SK-OV-3 [1]) | viability at 0.000625 µM (SK-OV-3 [2]) |
| --- | --- | --- |
| COc1ccc(N(C)c2nc(Cl)nc3ccn(C)c23)cc1 | 94.1% | – |
| COc1ccc2c(c1)NC(=O)CN2c1nc(Cl)nc2ccsc12 | – | 81% |
